Each compound was assayed on THP-1 cells (assay: TNFα generation assay). Conditions: Homo sapiens, THP-1, 7 h, IFN-γ-differentiated THP-1 cells on human IgG-coated plate, cultured 7 hours; read-out: TNFα generation inhibitory activity (IC50).
Type: cell-based, human
Procedure: THP-1 cells (2×10^5 cells/ml), which were human monocytoid cells, were cultured in the presence of 10 ng/ml IFN-γ (Roche) for 2 days, so that the cells were induced to differentiate into macrophage-like cells. The differentiation-induced THP-1 cells were recovered, and the cells (1×10^6 cell/ml) were then allowed to react with a predetermined concentration of test compound at room temperature for 30 minutes. On the other hand, 100 μl of human IgG (10 μg/ml, SIGMA-ALDRICH) diluted with PBS was added to a 96-well plate, and it was then incubated at room temperature overnight. Thereafter, the resultant was washed with PBS twice to produce a human IgG-coated plate. Subsequently, a cell solution that contained a compound was inoculated on the human IgG-coated plate (5×10^4 cells/well), and it was then cultured for 7 hours. Thereafter, the cultured solution was recovered, and the amount of TNFα secreted into the culture solution was then measured by the ELISA method (Roche/R & D Systems) or the AlphaLISA method (PerkinElmer).

IC50	Compound
≤ 200 nM	NC(=O)c1cc(F)c(N[C@@H]2CCCC[C@@H]2N)nc1Nc1ccc2ncccc2c1 (relative stereo) [Example 8-6, 6-(cis-2-aminocyclohexylamino)-5-fluoro-2-(quinolin-6-ylamino)-nicotinamide]
≤ 200 nM	NC(=O)c1cc(F)c(N[C@@H]2CCCC[C@@H]2N)nc1Nc1cccc(Cl)c1 (relative stereo) [Example 8-8, 6-(cis-2-aminocyclohexylamino)-2-((3-chlorophenyl)amino)-5-fluoro-nicotinamide]
≤ 200 nM	Cc1cncc(Nc2nc(N[C@@H]3CCCC[C@@H]3N)c(Br)cc2C(N)=O)c1 (relative stereo) [Example 35-7, 6-(cis-2-aminocyclohexylamino)-5-bromo-2-((5-methylpyridin-3-yl)amino)nicotinamide]
≤ 200 nM	CC[C@@H](Nc1nc(Nc2ccc3ncccc3c2)c(C(N)=O)cc1F)C(N)=O [Example 12-31, 6-(((2R)-1-amino-1-oxobutan-2-yl)amino)-5-fluoro-2-(quinolin-6-ylamino)nicotinamide]
≤ 200 nM	NC(=O)c1cc(F)c(NC[C@@H](N)c2ccccc2)nc1Nc1ccc2ncccc2c1 [Example 14-5, 6-(((2S)-2-amino-2-phenylethyl)amino)-5-fluoro-2-(quinolin-6-ylamino)nicotinamide]

Second part, the compound before the results:

Compound	IC50
NC(=O)c1cc(F)c(N[C@@H]2CCCC[C@@H]2N)nc1Nc1ccc(N2CCOCC2)nc1 (relative stereo) [Example 2-20, 6-(cis-2-aminocyclohexylamino)-5-fluoro-2-((6-(morpholin-4-yl)pyridin-3-yl)amino)nicotinamide]	≤ 200 nM
NC(=O)c1cc(F)c(N[C@@H]2CCCC[C@@H]2N)nc1Nc1cnc2c(ccn2CCN2CCCC2)c1 (relative stereo) [Example 4-22, 6-(cis-2-aminocyclohexylamino)-5-fluoro-2-((1-(2-(pyrrolidin-1-yl)ethyl)-1H-pyrrolo[2,3-b]pyridin-5-yl)amino)nicotinamide]	≤ 200 nM
NC(=O)c1cc(F)c(N[C@@H]2CCCC[C@@H]2N)nc1Nc1ccnc2c1ccn2CCN1CCCC1 (relative stereo) [Example 4-23, 6-(cis-2-aminocyclohexylamino)-5-fluoro-2-((1-(2-(pyrrolidin-1-yl)ethyl)-1H-pyrrolo[2,3-b]pyridin-4-yl)amino)nicotinamide]	≤ 200 nM
NC(=O)c1cc(F)c(N[C@@H]2CCCC[C@@H]2N)nc1Nc1ccnc2c1ccn2CCN1CCOCC1 (relative stereo) [Example 4-25, 6-(cis-2-aminocyclohexylamino)-5-fluoro-2-((1-(2-(morpholin-4-yl)ethyl)-1H-pyrrolo[2,3-b]pyridin-4-yl)amino)nicotinamide]	≤ 200 nM
NC(=O)c1cc(F)c(N[C@@H]2CCCC[C@@H]2N)nc1Nc1cnc2ncsc2c1 (relative stereo) [Example 4-26, 6-(cis-2-aminocyclohexylamino)-5-fluoro-2-(([1,3]thiazolo[4,5-b]pyridin-6-yl)amino)nicotinamide]	≤ 200 nM
CCN(CC)CCn1ccc2c(Nc3nc(N[C@@H]4CCCC[C@@H]4N)c(F)cc3C(N)=O)ccnc21 (relative stereo) [Example 4-28, 6-(cis-2-aminocyclohexylamino)-2-((1-(2-(diethylamino)ethyl)-1H-pyrrolo[2,3-b]pyridin-4-yl)amino)-5-fluoronicotinamide]	≤ 200 nM
NC(=O)c1cc(F)c(N[C@@H]2CCCC[C@@H]2N)nc1Nc1ccnc2c1ccn2CC1CC1 (relative stereo) [Example 4-40, 6-(cis-2-aminocyclohexylamino)-2-((1-(cyclopropylmethyl)-1H-pyrrolo[2,3-b]pyridin-4-yl)amino)-5-fluoronicotinamide]	≤ 200 nM
NC(=O)c1cc(F)c(N[C@@H]2CCCC[C@@H]2N)nc1Nc1cncc(-n2nccn2)c1 (relative stereo) [Example 4-42, 6-(cis-2-aminocyclohexylamino)-5-fluoro-2-((5-(2H-1,2,3-triazol-2-yl)pyridin-3-yl)amino)nicotinamide]	≤ 200 nM
NC(=O)Nc1cccc2cc(Nc3nc(N[C@@H]4CCCC[C@@H]4N)c(F)cc3C(N)=O)cnc12 (relative stereo) [Example 4-64, 2-((8-(aminocarbonyl)amino-quinolin-3-yl)amino)-6-(cis-2-amino-cyclohexylamino)-5-fluoronicotinamide]	≤ 200 nM
NC(=O)c1cc(F)c(N[C@@H]2CCCC[C@@H]2N)nc1Nc1ccc2nsnc2c1 (relative stereo) [Example 6-34, 6-(cis-2-aminocyclohexylamino)-2-((benzo[c][1,2,5]thiadiazol-5-yl)amino)-5-fluoronicotinamide]	≤ 200 nM
NC(=O)c1cc(F)c(N[C@@H]2CCCC[C@@H]2N)nc1Nc1ccc2ncsc2c1 (relative stereo) [Example 6-35, 6-(cis-2-aminocyclohexylamino)-2-((benzo[d]thiazol-6-yl)amino)-5-fluoronicotinamide]	≤ 200 nM
Cn1ncc2ccc(Nc3nc(N[C@@H]4CCCC[C@@H]4N)c(F)cc3C(N)=O)cc21 (relative stereo) [Example 6-40, 6-(cis-2-aminocyclohexylamino)-5-fluoro-2-((1-methyl-1H-indazol-6-yl)amino)nicotinamide]	≤ 200 nM
Cc1nc2ccc(Nc3nc(N[C@@H]4CCCC[C@@H]4N)c(F)cc3C(N)=O)cc2o1 (relative stereo) [Example 6-43, 6-(cis-2-aminocyclohexylamino)-5-fluoro-2-((2-methylbenzo[d]oxazol-6-yl)amino)nicotinamide]	≤ 200 nM
Cc1nc2cc(Nc3nc(N[C@@H]4CCCC[C@@H]4N)c(F)cc3C(N)=O)ccc2o1 (relative stereo) [Example 6-46, 6-(cis-2-aminocyclohexylamino)-5-fluoro-2-((2-methylbenzo[d]oxazol-5-yl)amino)nicotinamide]	≤ 200 nM
Cn1cnc2cc(Nc3nc(N[C@@H]4CCCC[C@@H]4N)c(F)cc3C(N)=O)ccc21 (relative stereo) [Example 6-65, 6-(cis-2-aminocyclohexylamino)-5-fluoro-2-((1-methyl-1H-benzo[d]imidazol-5-yl)amino)nicotinamide]	≤ 200 nM
Cc1ccc2cc(Nc3nc(N[C@@H]4CCCC[C@@H]4N)c(F)cc3C(N)=O)ccc2n1 (relative stereo) [Example 6-70, 6-(cis-2-aminocyclohexylamino)-5-fluoro-2-((2-methylquinolin-6-yl)amino)nicotinamide]	≤ 200 nM
NC(=O)c1cc(F)c(N[C@@H]2CCCC[C@@H]2N)nc1Nc1ccc2cccnc2c1 (relative stereo) [Example 6-72, 6-(cis-2-aminocyclohexylamino)-5-fluoro-2-(quinolin-7-ylamino)nicotinamide]	≤ 200 nM
Cn1ncc2c(Nc3nc(N[C@@H]4CCCC[C@@H]4N)c(F)cc3C(N)=O)cccc21 (relative stereo) [Example 6-75, 6-(cis-2-aminocyclohexylamino)-5-fluoro-2-((1-methyl-1H-indazol-4-yl)amino)nicotinamide]	≤ 200 nM
Cc1cnc2cc(Nc3nc(N[C@@H]4CCCC[C@@H]4N)c(F)cc3C(N)=O)ccc2n1 (relative stereo) [Example 6-76, 6-(cis-2-aminocyclohexylamino)-5-fluoro-2-((2-methylquinoxalin-6-yl)amino)nicotinamide]	≤ 200 nM
NC(=O)c1cc(F)c(N[C@@H]2CCCC[C@@H]2N)nc1Nc1ccc2c(cnn2CCN2CCCC2)c1 (relative stereo) [Example 6-82, 6-(cis-2-aminocyclohexylamino)-5-fluoro-2-((1-(2-(pyrrolidin-1-yl)ethyl)-1H-indazol-5-yl)amino)nicotinamide]	≤ 200 nM
NC(=O)c1cc(F)c(N[C@@H]2CCCC[C@@H]2N)nc1Nc1ccc2nn(CCN3CCCC3)cc2c1 (relative stereo) [Example 6-83, 6-(cis-2-aminocyclohexylamino)-5-fluoro-2-((2-(2-(pyrrolidin-1-yl)ethyl)-2H-indazol-5-yl)amino)nicotinamide]	≤ 200 nM
NC(=O)c1cc(F)c(N[C@@H]2CCCC[C@@H]2N)nc1Nc1ccc2[nH]ncc2c1 (relative stereo) [Example 6-87, 6-(cis-2-aminocyclohexylamino)-5-fluoro-2-((1H-indazol-5-yl)amino)nicotinamide]	≤ 200 nM
NCCNc1nc(Nc2ccc3ncsc3c2)c(C(N)=O)cc1F [Example 6-44, 6-(2-aminoethylamino)-2-((benzo[d]thiazol-6-yl)amino)-5-fluoro-nicotinamide]	≤ 200 nM

Same assay, conditions: Homo sapiens, THP-1, 7 h, read-out: TNFα generation inhibitory activity (IC50)

Compound	IC50
NCCNc1nc(Nc2cnc3ccccc3c2)c(C(N)=O)cc1F [Example 8-11, 6-(2-aminoethylamino)-5-fluoro-2-(quinolin-3-ylamino)nicotinamide]	≤ 200 nM

Same assay, conditions: Homo sapiens, THP-1, THP-1 cells; Table 22; read-out: IC50 in TNFα generation assay

IC50	Compound
130 to 200 nM	Cc1nc2ccc(Nc3nc(N[C@@H]4CCCC[C@@H]4N)c(F)cc3C(N)=O)cc2o1 (relative stereo) [Example 006-043, 6-(cis-2-aminocyclohexylamino)-5-fluoro-2-((2-methylbenzo[d]oxazol-6-yl)amino)nicotinamide]
65 to 130 nM	NC(=O)c1cc(F)c(N[C@@H]2CCCC[C@@H]2N)nc1Nc1ccnc2c1ccn2CCN1CCCC1 [Example 004-023]
< 65 nM	CC(C)C[C@H](CN)Nc1nc(Nc2ccc3ncccc3c2)c(C(N)=O)cc1F [Example 006-117, (R)-6-((1-amino-4-methylpentan-2-yl)amino)-5-fluoro-2-((quinolin-6-yl)amino)nicotinamide]

From patent US8895585B2, “Nicotinamide derivative or salt thereof” (FUJIFILM Corporation, priority 2010, dated 2014)
